Legend:
Test in all cases: Experiment B1 glasshouse herbicide test, pre- and post-emergence, percentage damage
Assay type in all cases: in vivo
Conditions in all cases: evaluated after 13 days
Solanum nigrum (SOLNI) = tested on: Solanum nigrum (SOLNI)
Protocol: (§1) Seeds of a variety of test species are sown in standard soil in pots (Lolium perenne (LOLPE), Solanum nigrum (SOLNI), Amaranthus retoflexus (AMARE), Setaria faberi (SETFA), Echinochloa crus-galli (ECHCG), Ipomoea hederacea (IPOHE)). After cultivation for one day (pre-emergence) or after 8 days cultivation (post-emergence) under controlled conditions in a glasshouse (at 24/16° C., day/night; 14 hours light; 65% humidity), the plants are sprayed with an aqueous spray solution derived from the formulation of the technical active ingredient in acetone/water (50:50) solution containing 0.5% Tween 20 (polyoxyethelyene sorbitan monolaurate, CAS RN 9005-64-5). […] The test plants are then grown in a glasshouse under controlled conditions in a glasshouse (at 24/16° C., day/night; 14 hours light; 65% humidity) and watered twice daily. After 13 days for pre and post-emergence, the test is evaluated for the percentage damage caused to the plant. The biological activities are shown in the following table on a five point scale (5=80-100%; 4=60-79%; 3=40-59%; 2=20-39%; 1=0-19%).

[1] = tested on: Amaranthus retoflexus (AMARE)
Protocol: as §1

Setaria faberi (SETFA) = tested on: Setaria faberi (SETFA)
Protocol: as §1

Lolium perenne (LOLPE) = tested on: Lolium perenne (LOLPE)
Protocol: as §1

[2] = tested on: Ipomoea hederacea (IPOHE)
Protocol: as §1

[3] = tested on: Echinochloa crus-galli (ECHCG)
Protocol: as §1

[4] = POST Application (post-emergence, after 8 days cultivation), 1000 g/h
[5] = PRE Application (pre-emergence, after cultivation for one day), 1000 g/h
[6] = POST Application (post-emergence), applied at 250 g/ha
[7] = PRE Application (pre-emergence), applied at 250 g/ha

SMILES	percentage damage caused to the plant, five point scale, SOLNI (Solanum nigrum (SOLNI); [4])	percentage damage caused to the plant, five point scale, SOLNI (Solanum nigrum (SOLNI); [5])	percentage damage caused to the plant, five point scale, AMARE [1, 4]	percentage damage caused to the plant, five point scale, AMARE [1, 5]	percentage damage caused to the plant, five point scale, SETFA (Setaria faberi (SETFA); [4])	percentage damage caused to the plant, five point scale, SETFA (Setaria faberi (SETFA); [5])	percentage damage caused to the plant, five point scale, LOLPE (Lolium perenne (LOLPE); [4])	percentage damage caused to the plant, five point scale, LOLPE (Lolium perenne (LOLPE); [5])	percentage damage caused to the plant, five point scale, IPOHE [2, 4]	percentage damage caused to the plant, five point scale, IPOHE [2, 5]	percentage damage caused to the plant, five point scale, ECHCG [3, 4]	percentage damage caused to the plant, five point scale, ECHCG [3, 5]	further results
Cc1c(C(=O)Nc2nnnn2C)cc2cccnc2c1-c1ccc(Cl)cc1 [Compound 1.036]	5 (5=80-100%)	5 (5=80-100%)	5 (5=80-100%)	5 (5=80-100%)	5 (5=80-100%)	5 (5=80-100%)	4 (4=60-79%)	4 (4=60-79%)	5 (5=80-100%)	5 (5=80-100%)	5 (5=80-100%)	5 (5=80-100%)	
O=C(Nc1nnnn1-c1ccccc1)c1cc2cccnc2c(-c2ccccc2)c1C(F)(F)F [Compound 1.033]	5 (5=80-100%)	4 (4=60-79%)	5 (5=80-100%)	5 (5=80-100%)	2 (2=20-39%)	1 (1=0-19%)	1 (1=0-19%)	1 (1=0-19%)	5 (5=80-100%)	3 (3=40-59%)	2 (2=20-39%)	1 (1=0-19%)	
CSc1ccc(-c2c(C)c(C(=O)Nc3nnnn3C)cc3cccnc23)cc1 [Compound 1.030, 7-methyl-8-(4-methylsulfanylphenyl)-N-(1-methyltetrazol-5-yl)quinoline-6-carboxamide]	5 (5=80-100%)	5 (5=80-100%)	5 (5=80-100%)	5 (5=80-100%)	5 (5=80-100%)	5 (5=80-100%)	4 (4=60-79%)	4 (4=60-79%)	5 (5=80-100%)	4 (4=60-79%)	5 (5=80-100%)	5 (5=80-100%)	
CCn1nnnc1NC(=O)c1cc2cccnc2c(-c2ccccc2)c1C(F)(F)F [Compound 1.002]	5 (5=80-100%)	5 (5=80-100%)	5 (5=80-100%)	5 (5=80-100%)	5 (5=80-100%)	5 (5=80-100%)	5 (5=80-100%)	5 (5=80-100%)	5 (5=80-100%)	5 (5=80-100%)	5 (5=80-100%)	5 (5=80-100%)	
Cn1nnnc1NC(=O)c1cc2cccnc2c(-c2ccccc2)c1S(C)(=O)=O [Compound 1.010, 7-METHYLSULFONYL-N-(1-METHYLTETRAZOL-5-YL)-8-PHENYL-QUINOLINE-6-CARBOXAMIDE]													percentage damage caused to the plant, five point scale, SOLNI (Solanum nigrum (SOLNI); [6]): 5 (5=80-100%); percentage damage caused to the plant, five point scale, SOLNI (Solanum nigrum (SOLNI); [7]): 5 (5=80-100%); percentage damage caused to the plant, five point scale, AMARE [1, 6]: 5 (5=80-100%); percentage damage caused to the plant, five point scale, AMARE [1, 7]: 5 (5=80-100%); percentage damage caused to the plant, five point scale, SETFA (Setaria faberi (SETFA); [6]): 5 (5=80-100%); percentage damage caused to the plant, five point scale, SETFA (Setaria faberi (SETFA); [7]): 2 (2=20-39%); percentage damage caused to the plant, five point scale, LOLPE (Lolium perenne (LOLPE); [6]): 4 (4=60-79%); percentage damage caused to the plant, five point scale, LOLPE (Lolium perenne (LOLPE); [7]): 2 (2=20-39%); percentage damage caused to the plant, five point scale, IPOHE [2, 6]: 5 (5=80-100%); percentage damage caused to the plant, five point scale, IPOHE [2, 7]: 4 (4=60-79%); percentage damage caused to the plant, five point scale, ECHCG [3, 6]: 5 (5=80-100%); percentage damage caused to the plant, five point scale, ECHCG [3, 7]: 5 (5=80-100%)
Cn1nnnc1NC(=O)c1cc2cc(F)cnc2c(-c2ccccc2)c1C(F)(F)F [Compound 1.007, 3-fluoro-N-(1-methyltetrazol-5-yl)-8-phenyl-7-(trifluoromethyl)quinoline-6-carboxamide]	5 (5=80-100%)	5 (5=80-100%)	5 (5=80-100%)	5 (5=80-100%)	5 (5=80-100%)	5 (5=80-100%)	5 (5=80-100%)	5 (5=80-100%)	5 (5=80-100%)	5 (5=80-100%)	5 (5=80-100%)	5 (5=80-100%)	
Cc1c(C(=O)Nc2nnnn2C)cc2cccnc2c1-c1ccc(S(C)(=O)=O)cc1 [Compound 1.031, 7-methyl-8-(4-methylsulfonylphenyl)-N-(1-methyltetrazol-5-yl)quinoline-6-carboxamide]	5 (5=80-100%)	5 (5=80-100%)	5 (5=80-100%)	5 (5=80-100%)	5 (5=80-100%)	5 (5=80-100%)	5 (5=80-100%)	5 (5=80-100%)	5 (5=80-100%)	5 (5=80-100%)	5 (5=80-100%)	5 (5=80-100%)	
COc1ccc(-c2c(C)c(C(=O)Nc3nnnn3C)cc3ccc(C)nc23)cc1 [Compound 1.037]	5 (5=80-100%)	5 (5=80-100%)	5 (5=80-100%)	5 (5=80-100%)	5 (5=80-100%)	5 (5=80-100%)	5 (5=80-100%)	3 (3=40-59%)	5 (5=80-100%)	4 (4=60-79%)	5 (5=80-100%)	5 (5=80-100%)	

From patent US9980486B2, “Herbicidal quinolines” (Syngenta Participations AG, priority 2014, dated 2018)
